Source: patent US5175146A, “Synthetic calcitonin peptides” (Vical, Inc., priority 1990, dated 1992)
Starred links: 1 amine or outer side, 2 acyl side, 3 side chain; linkers in the order of their positions; H or OH if unused. Positions of bridges follow the written chain, without caps; N, C: chain ends. Residues, ends and D or L forms follow the SMILES beside them. Suc = O=C(CCC(=O)[*:2])[*:1]

Tests used:
[1] = set-up: species or system rabbits; conditions: rabbit, in vivo
Procedure: Peptides of the formula I when administered intranasally show hypocalcemic effects in animals. In order to determine their bioavailability, the effect of hypocalcemic peptides administered intranasally were compared with those administered by intravenous injection, as described below. Nasal powdery formulations containing 100 IU per 30 mg of dry powder were prepared substantially as described in U.S. Pat. No. 4,613,500. Peptides were administered intranasally at a dose of 2.8 IU/kg or intravenously at a dose of 1.75 IU/kg to rabbits. Blood samples were withdrawn before administering the peptides and 0.5, 1, 2, 4, and 6 hours after administration, and serum calcium levels determined. The ratios of areas under the curve of hypocalcemic effect (0 to 6 hours) after nasal and intravenous administration are calculated.

[2] = test system: Male rats (Sprague Dawley); assay: Hypocalcemic activity: serum Ca++ decrease in rats after subcutaneous injection; type: in vivo; conditions: rat serum
Procedure: Calcitonins lower the blood calcium of immature rats by inhibiting bone resorption. Their potency can be assessed by determining the micrograms of peptide required to reduce the serum calcium by ten percent. The results of in vivo tests of the biological activities of synthetic calcitonin peptides of the invention are shown in Example 37.
This activity was measured as follows: Male rats (Sprague Dawley) weighing approximately 100 grams were fasted overnight. Peptides according to the invention, comprising various potency-enhancing modifications, were dissolved in pH 7.4 PBS buffer at a concentration range of 0.001 microgram to about 100 microgram per ml. The rats were anesthetized with Metophane10, weighed and injected subcutaneously with the peptide solutions in a dose of from 0.001 to about 100 microgram per kilogram of body weight. […] Calcium-lowering potencies of the synthetic peptides can be calculated in International units (IU) per mg as described by the method of M. Kumar et al., J. Endocrinology 33:469-475 (1964). According to this test, 10 IU is defined as the amount of peptide necessary for lowering Ca++ concentration by 10% in 100 gram rats one hour after subcutaneous injection. Serum Ca++ levels in the rat after subcutaneous injection of various peptides are summarized below: […]

Ratio of Nasal:i.v. Bioavailability [1] | Compound | Ca++ Decrease ([2]; dose 1 ug/kg s.c., 1 hr) | Ca++ Decrease ([2]; dose 10 ug/kg s.c., 1 hr) | Ca++ Decrease ([2]; dose 100 ug/kg s.c., 1 hr) | other results
14.3% | CC(C)C[C@H](NC(=O)[C@H](CC(C)C)NC(=O)[C@@H]1CCCCNC(=O)CCC(=O)N[C@@H](CO)C(=O)N[C@@H](CC(N)=O)C(=O)N[C@@H](CC(C)C)C(=O)N[C@@H](CO)C(=O)N[C@@H]([C@@H](C)O)C(=O)N1)C(=O)NCC(=O)N[C@@H](CCCCN)C(=O)N[C@@H](CC(C)C)C(=O)N[C@@H](CO)C(=O)N[C@@H](CCC(N)=O)C(=O)N[C@@H](CCC(=O)O)C(=O)N[C@@H](CC(C)C)C(=O)N[C@@H](Cc1c[nH]cn1)C(=O)N[C@@H](CCCCN)C(=O)N[C@@H](CC(C)C)C(=O)N[C@@H](CCC(N)=O)C(=O)N[C@H](C(=O)N[C@@H](Cc1ccc(O)cc1)C(=O)N1CCC[C@H]1C(=O)N[C@@H](CCCNC(=N)N)C(=O)N[C@H](C(=O)N[C@@H](CC(=O)O)C(=O)N[C@H](C(=O)NCC(=O)N[C@@H](C)C(=O)NCC(=O)N[C@H](C(=O)N1CCC[C@H]1C(N)=O)[C@@H](C)O)C(C)C)[C@@H](C)O)[C@@H](C)O (SNLSTKLLGKLSQELHKLQTYPRTDVGAGTP-NH2; linker N-6 via Suc) | – | – | – | –
28.6% | CC(C)C[C@H](NC(=O)[C@H](CC(C)C)NC(=O)[C@@H]1CSSC[C@H](N)C(=O)N[C@@H](CO)C(=O)N[C@@H](CC(N)=O)C(=O)N[C@@H](CC(C)C)C(=O)N[C@@H](CO)C(=O)N[C@@H]([C@@H](C)O)C(=O)N1)C(=O)NCC(=O)N[C@@H](CCCCN)C(=O)N[C@@H](CC(C)C)C(=O)N[C@@H](CO)C(=O)N[C@@H](CCC(N)=O)C(=O)N[C@@H](CCC(=O)O)C(=O)N[C@@H](CC(C)C)C(=O)N[C@@H](Cc1c[nH]cn1)C(=O)N[C@@H](CCCCN)C(=O)N[C@@H](CC(C)C)C(=O)N[C@@H](CCC(N)=O)C(=O)N[C@H](C(=O)N[C@@H](Cc1ccc(O)cc1)C(=O)N1CCC[C@H]1C(=O)N[C@@H](CCCNC(=N)N)C(=O)N[C@H](C(=O)N[C@@H](CC(=O)O)C(=O)N[C@H](C(=O)NCC(=O)N[C@@H](C)C(=O)NCC(=O)N[C@H](C(=O)N1CCC[C@H]1C(N)=O)[C@@H](C)O)C(C)C)[C@@H](C)O)[C@@H](C)O [(Leu^8)-eCT] (H-CSNLSTCLLGKLSQELHKLQTYPRTDVGAGTP-NH2; disulfide 1-7) | – | – | – | –
28.0% | CC[C@H](C)[C@H](NC(=O)[C@H](C)NC(=O)[C@@H](NC(=O)[C@H](CCC(N)=O)NC(=O)[C@@H]1CCCN1C(=O)[C@H](Cc1ccccc1)NC(=O)[C@@H](NC(=O)[C@H](Cc1c[nH]cn1)NC(=O)[C@H](Cc1ccccc1)NC(=O)[C@H](CCCCN)NC(=O)[C@H](CC(N)=O)NC(=O)[C@H](CC(C)C)NC(=O)[C@H](CC(=O)O)NC(=O)[C@H](CCC(N)=O)NC(=O)[C@@H](NC(=O)[C@H](CC(C)C)NC(=O)[C@@H](NC(=O)CNC(=O)[C@H](CC(C)C)NC(=O)[C@H](CC(C)C)NC(=O)[C@@H]1CSSC[C@H](N)C(=O)NCC(=O)N[C@@H](CC(N)=O)C(=O)N[C@@H](CC(C)C)C(=O)N[C@@H](CO)C(=O)N[C@@H]([C@@H](C)O)C(=O)N1)[C@@H](C)O)[C@@H](C)O)[C@@H](C)O)[C@@H](C)O)C(=O)NCC(=O)N[C@H](C(=O)NCC(=O)N[C@@H](C)C(=O)N1CCC[C@H]1C(N)=O)C(C)C [[Leu-8,12,16]-hCT, [Leu^8,12,16]-hCT] (H-CGNLSTCLLGTLTQDLNKFHTFPQTAIGVGAP-NH2; disulfide 1-7) | – | – | – | –
– | [(ADA-Ser)-5,Ala-7]-cCT(5-32) | 0.19 mg/dL | 2.83 mg/dL | – | Ca++ Decrease ([2]; dose 1 ug/kg s.c., 3 hr): 0.14 mg/dL; Ca++ Decrease ([2]; dose 3 ug/kg s.c., 1 hr): 0.33 mg/dL; Ca++ Decrease ([2]; dose 3 ug/kg s.c., 3 hr): 0.21 mg/dL; Ca++ Decrease ([2]; dose 10 ug/kg s.c., 3 hr): 2.98 mg/dL; Ca++ Decrease ([2]; dose 10 ug/kg s.c., 6 hr): 2.10 mg/dL
– | [(Ac0AOA-SerThr)2 -Lys-7]-cCT(7-32) | 2.29 mg/dL | 2.45 mg/dL | 2.34 mg/dL | Ca++ Decrease ([2]; dose 0.1 ug/kg s.c., 1 hr): 0.42 mg/dL; Ca++ Decrease ([2]; dose 0.4 ug/kg s.c., 1 hr): 0.45 mg/dL
– | [(Chx-Ser)^5, Ala^7, des-^22 ]-Avian Calcitonin (5-32) [[(CHX-Ser)-5,Ala-7,des-22]-cCT(5-32)] | 0.32 mg/dL | 1.42 mg/dL | 1.82 mg/dL | –
17.4% | [(Chx-Ser-Thr)2 -Lys^7, Leu^8 ]-Eel Calcitonin (7-32) [[(ChxSerThr)2 -Lys^7, Leu^8]-eCT(7-32)] | 2.42 mg/dL | – | – | Ca++ Decrease ([2]; dose 0.01 ug/kg s.c., 1 hr): 0.13 mg/dL; Ca++ Decrease ([2]; dose 0.03 ug/kg s.c., 1 hr): 0.24 mg/dL; Ca++ Decrease ([2]; dose 0.1 ug/kg s.c., 1 hr): 0.39 mg/dL; Ca++ Decrease ([2]; dose 0.32 ug/kg s.c., 1 hr): 1.09 mg/dL
– | [(D-Ala-Ada-Ser)^5, Ala^7, des-^22 ]-Avian Calcitonin (5-32) | 0.32 mg/dL | 1.42 mg/dL | 1.82 mg/dL | –
37.5% | [(LeuCys)^1, Leu^8 ]-eCT | 3.35 mg/dL | – | – | Ca++ Decrease ([2]; dose 0.03 ug/kg s.c., 1 hr): 1.24 mg/dL
– | [(Oleyl-Ser)-5,Ala-7]-cCT(5-32) | 0.47 mg/dL | 0.60 mg/dL | 1.15 mg/dL | –
– | [(SerThr)2 -Lys-7]-cCT(7-32) | 2.09 mg/dL | 2.75 mg/dL | 2.75 mg/dL | –
